Data from patent EP0726263A2, “Herbicidal (1,3,4)oxadiazoles and thiadiazoles” (American Cyanamid Company, priority 1995, dated 1996).

Legend:
Type in all cases: in vivo
Setaria viridis [1] = assay: Herbicidal activity, postemergence test; details: post; sprayed onto seedling plants, 800 g of active material per hectare; evaluated 2 weeks after treatment
Procedure, shortened: (§1)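 Spray dose 800 g a.i./ha in 900 L/ha; acetone stock with 0.4% Triton X-155, water-diluted. Pre: sown loam soil, read at 3 wk. Post: seedling plants, read at 2 wk. Visual 0-9 rating vs untreated.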

Triticum aestivum [2] = assay: Herbicidal activity, postemergence test; details: post; sprayed onto seedling plants, 800 g of active material per hectare; evaluated 2 weeks after treatment
Procedure, shortened: as §1

Echinochloa crus-galli [3] = assay: Herbicidal activity, postemergence test; details: post; sprayed onto seedling plants, 800 g of active material per hectare; evaluated 2 weeks after treatment
Procedure, shortened: as §1

Ipomoea hederacea [4] = assay: Herbicidal activity, postemergence test; details: post; sprayed onto seedling plants, 800 g of active material per hectare; evaluated 2 weeks after treatment
Procedure, shortened: as §1

Hordeum vulgare [5] = assay: Herbicidal activity, postemergence test; details: post; sprayed onto seedling plants, 800 g of active material per hectare; evaluated 2 weeks after treatment
Procedure, shortened: as §1

Helianthus annuus [6] = assay: Herbicidal activity, postemergence test; details: post; sprayed onto seedling plants, 800 g of active material per hectare; evaluated 2 weeks after treatment
Procedure, shortened: as §1

Veronica persica [7] = assay: Herbicidal activity, postemergence test; details: post; sprayed onto seedling plants, 800 g of active material per hectare; evaluated 2 weeks after treatment
Procedure, shortened: as §1

Alopecurus myosuroides [8] = assay: Herbicidal activity, postemergence test; details: post; sprayed onto seedling plants, 800 g of active material per hectare; evaluated 2 weeks after treatment
Procedure, shortened: as §1

Glycine max [9] = assay: Herbicidal activity, postemergence test; details: post; sprayed onto seedling plants, 800 g of active material per hectare; evaluated 2 weeks after treatment
Procedure, shortened: as §1

Viola arvensis [10] = assay: Herbicidal activity, postemergence test; details: post; sprayed onto seedling plants, 800 g of active material per hectare; evaluated 2 weeks after treatment
Procedure, shortened: as §1

Lamium purpureum [11] = assay: Herbicidal activity, postemergence test; details: post; sprayed onto seedling plants, 800 g of active material per hectare; evaluated 2 weeks after treatment
Procedure, shortened: as §1

Amaranthus retroflexus [12] = assay: Herbicidal activity, postemergence test; details: post; sprayed onto seedling plants, 800 g of active material per hectare; evaluated 2 weeks after treatment
Procedure, shortened: as §1

Galium aparine [13] = assay: Herbicidal activity, postemergence test; details: post; sprayed onto seedling plants, 800 g of active material per hectare; evaluated 2 weeks after treatment
Procedure, shortened: as §1

Gossypium hirsutum [14] = assay: Herbicidal activity, postemergence test; details: post; sprayed onto seedling plants, 800 g of active material per hectare; evaluated 2 weeks after treatment
Procedure, shortened: as §1

Abutilon theophrasti [15] = assay: Herbicidal activity, postemergence test; details: post; sprayed onto seedling plants, 800 g of active material per hectare; evaluated 2 weeks after treatment
Procedure, shortened: as §1

Stellaria media [16] = assay: Herbicidal activity, postemergence test; details: post; sprayed onto seedling plants, 800 g of active material per hectare; evaluated 2 weeks after treatment
Procedure, shortened: as §1

Zea mays [17] = assay: Herbicidal activity, postemergence test; details: post; sprayed onto seedling plants, 800 g of active material per hectare; evaluated 2 weeks after treatment
Procedure, shortened: as §1

Ambrosia artemisifolia [18] = assay: Herbicidal activity, postemergence test; details: post; sprayed onto seedling plants, 800 g of active material per hectare; evaluated 2 weeks after treatment
Procedure, shortened: as §1

Setaria viridis [19] = assay: Herbicidal activity, preemergence test; details: pre; sprayed onto soil, 800 g of active material per hectare; evaluated 3 weeks after treatment
Procedure, shortened: (§2)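 Acetone/TRITON X-155 formulation diluted in water, sprayed onto horticultural loam soon after sowing at 800 g active material per hectare in 900 litres per hectare. Visual 0-9 rating of stand, vigor, malformation, size and chlorosis versus untreated sown soil, scored 3 weeks after treatment.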

Triticum aestivum [20] = assay: Herbicidal activity, preemergence test; details: pre; sprayed onto soil, 800 g of active material per hectare; evaluated 3 weeks after treatment
Procedure, shortened: as §2

Echinochloa crus-galli [21] = assay: Herbicidal activity, preemergence test; details: pre; sprayed onto soil, 800 g of active material per hectare; evaluated 3 weeks after treatment
Procedure, shortened: as §2

Ipomoea hederacea [22] = assay: Herbicidal activity, preemergence test; details: pre; sprayed onto soil, 800 g of active material per hectare; evaluated 3 weeks after treatment
Procedure, shortened: as §2

Hordeum vulgare [23] = assay: Herbicidal activity, preemergence test; details: pre; sprayed onto soil, 800 g of active material per hectare; evaluated 3 weeks after treatment
Procedure, shortened: as §2

Helianthus annuus [24] = assay: Herbicidal activity, preemergence test; details: pre; sprayed onto soil, 800 g of active material per hectare; evaluated 3 weeks after treatment
Procedure, shortened: as §2

Veronica persica [25] = assay: Herbicidal activity, preemergence test; details: pre; sprayed onto soil, 800 g of active material per hectare; evaluated 3 weeks after treatment
Procedure, shortened: as §2

Alopecurus myosuroides [26] = assay: Herbicidal activity, preemergence test; details: pre; sprayed onto soil, 800 g of active material per hectare; evaluated 3 weeks after treatment
Procedure, shortened: as §2

Glycine max [27] = assay: Herbicidal activity, preemergence test; details: pre; sprayed onto soil, 800 g of active material per hectare; evaluated 3 weeks after treatment
Procedure, shortened: as §2

Viola arvensis [28] = assay: Herbicidal activity, preemergence test; details: pre; sprayed onto soil, 800 g of active material per hectare; evaluated 3 weeks after treatment
Procedure, shortened: as §2

Lamium purpureum [29] = assay: Herbicidal activity, preemergence test; details: pre; sprayed onto soil, 800 g of active material per hectare; evaluated 3 weeks after treatment
Procedure, shortened: as §2

Amaranthus retroflexus [30] = assay: Herbicidal activity, preemergence test; details: pre; sprayed onto soil, 800 g of active material per hectare; evaluated 3 weeks after treatment
Procedure, shortened: as §2

Galium aparine [31] = assay: Herbicidal activity, preemergence test; details: pre; sprayed onto soil, 800 g of active material per hectare; evaluated 3 weeks after treatment
Procedure, shortened: as §2

Gossypium hirsutum [32] = assay: Herbicidal activity, preemergence test; details: pre; sprayed onto soil, 800 g of active material per hectare; evaluated 3 weeks after treatment
Procedure, shortened: as §2

Abutilon theophrasti [33] = assay: Herbicidal activity, preemergence test; details: pre; sprayed onto soil, 800 g of active material per hectare; evaluated 3 weeks after treatment
Procedure, shortened: as §2

Stellaria media [34] = assay: Herbicidal activity, preemergence test; details: pre; sprayed onto soil, 800 g of active material per hectare; evaluated 3 weeks after treatment
Procedure, shortened: as §2

Zea mays [35] = assay: Herbicidal activity, preemergence test; details: pre; sprayed onto soil, 800 g of active material per hectare; evaluated 3 weeks after treatment
Procedure, shortened: as §2

Ambrosia artemisifolia [36] = assay: Herbicidal activity, preemergence test; details: pre; sprayed onto soil, 800 g of active material per hectare; evaluated 3 weeks after treatment
Procedure, shortened: as §2

C[C@H](NC(=O)c1nnc(-c2ccccc2)o1)c1ccccc1 [Example 4]
1 (trace effect): ABUTH control rating (0-9) (Abutilon theophrasti [33]) | ZEAMX control rating (0-9) (Zea mays [35])
4 (injury): TRZAW control rating (0-9) (Triticum aestivum [2]) | ALOMY control rating (0-9) (Alopecurus myosuroides [8]) | SETVI control rating (0-9) (Setaria viridis [19]) | ECHCG control rating (0-9) (Echinochloa crus-galli [21])
6 (herbicidal effect): LAMPU control rating (0-9) (Lamium purpureum [11]) | VERPE control rating (0-9) (Veronica persica [25]) | VIOAR control rating (0-9) (Viola arvensis [28]) | STEME control rating (0-9) (Stellaria media [34])
7 (good herbicidal effect): VIOAR control rating (0-9) (Viola arvensis [10])
5 (definite injury): ECHCG control rating (0-9) (Echinochloa crus-galli [3]) | HORVW control rating (0-9) (Hordeum vulgare [5])
9 (complete kill): IPOHE control rating (0-9) (Ipomoea hederacea [4]) | HELAN control rating (0-9) (Helianthus annuus [6]) | VERPE control rating (0-9) (Veronica persica [7]) | AMARE control rating (0-9) (Amaranthus retroflexus [12]) | GOSHI control rating (0-9) (Gossypium hirsutum [14]) | ABUTH control rating (0-9) (Abutilon theophrasti [15]) | STEME control rating (0-9) (Stellaria media [16]) | AMBEL control rating (0-9) (Ambrosia artemisifolia [18])
0 (no effect): TRZAW control rating (0-9) (Triticum aestivum [20]) | IPOHE control rating (0-9) (Ipomoea hederacea [22]) | HORVW control rating (0-9) (Hordeum vulgare [23]) | HELAN control rating (0-9) (Helianthus annuus [24]) | ALOMY control rating (0-9) (Alopecurus myosuroides [26]) | GLXMA control rating (0-9) (Glycine max [27]) | GALAP control rating (0-9) (Galium aparine [31]) | GOSHI control rating (0-9) (Gossypium hirsutum [32]) | AMBEL control rating (0-9) (Ambrosia artemisifolia [36])
8 (approaching complete kill): SETVI control rating (0-9) (Setaria viridis [1]) | GLXMA control rating (0-9) (Glycine max [9]) | GALAP control rating (0-9) (Galium aparine [13]) | AMARE control rating (0-9) (Amaranthus retroflexus [30])
3 (moderate effect): ZEAMX control rating (0-9) (Zea mays [17]) | LAMPU control rating (0-9) (Lamium purpureum [29])
